The molecules below were run against T1, full length active recombinant SYK enzyme (Homo sapiens, UniProt P43405) (assay: Inhibition of Syk tyrosine phosphorylation activity (LANCE TR-FRET kinase assay)).
T1 construct: full length active recombinant SYK enzyme (Millipore, Calif.); purchased Millipore
Assay type: biochemical
Description: This example illustrates methods for evaluating the compounds of the invention, along with results obtained for such assays. The in vitro and in vivo human Syk activities of the inventive compounds can be determined by various procedures known in the art, such as a test for their ability to inhibit the activity of human plasma Syk. […] The IC50 value is the concentration (in nM) of the compound required to provide 50% inhibition of human Syk proteolytic activity.
Potency of candidate molecules for inhibiting Syk tyrosine phosphorylation activity is assessed by measuring the ability of a test compound to inhibit Syk-mediated tyrosine phosphorylation of a Syk-specific substrate.
SYK tyrosine phosphorylation activity is measured using the LANCE™ Technology developed by Perkin Elmer Life and Analytical Sciences (Boston, Mass.). LANCE™ refers to homogeneous time resolved fluorometry applications using techniques such as time-resolved fluorescence resonance energy transfer assay (TR-FRET) (see generally for procedures in Perkin Elmer Application Note—How to Optimize a Tyrosine Kinase Assay Using Time Resolved Fluorescence-Based LANCE Detection, wwww.perkinelmer.com/lifesciences). The assay principle involves detection of a phosphorylated substrate using energy transfer from a phosphospecific europium-labeled antibody to streptavidin-allophycocyanin as an acceptor.
To test the ability of candidate molecules to inhibit SYK tyrosine phosphorylation activity, molecules are reconstituted in 30% DMSO and serially diluted 1:3 with the final dilution containing DMSO in the absence of the candidate molecule. The final DMSO concentration in the assay is 3%. Kinase assays are performed as a two part reaction. The first reaction is a kinase reaction and which comprises of a candidate molecule, full length active recombinant SYK enzyme (Millipore, Calif.) and biotin-labeled SYK-specific substrate biotin-[…]-OH. The second reaction involves termination of the kinase reaction and the simultaneous addition of the detection reagents-europium-labeled anti-phosphotyrosine reagent (Eu-W1024-PY100, Perkin Elmer, Boston, Mass.) and Streptavidin-Allophycocyanin detection reagent (SA-APC, Prozyme, Calif.). The kinase reaction is performed in a black U-bottom 96-well microtitre plate. The final reaction volume is 50 μL and contains a final concentration of 1 nM active SYK enzyme, 550 nM SYK-substrate, and 100 μM ATP diluted in a buffer containing 50 mM Tris pH 7.5, 5 mM MgCl2, and 1 mM DTT. The reaction is allowed to proceed for 1 hour at room temperature. The quench buffer contains 100 mM Tris pH 7.5, 300 mM NaCl2, 20 mM EDTA, 0.02% Brij35, and 0.5% BSA. The detection reagents are added to the reaction mixture at the following dilutions-1:500 for Eu-W1024-PY100 and 1:250 for SA-APC. The kinase reaction is terminated by the addition of 50 μL quench buffer containing the detection reagents. The detection is allowed to proceed for 1 hr at room temperature. Detection of the phosphorlated substrate in the absence and presence of inhibitors is measured in the TR-FRET instrument, Analyst HT (Molecular Probes, Sunnyvale, Calif.) and the condition for measurements are set up using CriterionHost Release 2.0 (Molecular Probes, Sunnyvale, Calif.). The settings used are a follows: excitation 360 nm, emission 665-7.5 nm, beam splitter 350 nm 50/50, flash 100 pulses, delay 60 us, integration 400 us, z-height 2 mm. Inhibition of SYK-tyrosine kinase activity is calculated as the maximum response observed in the presence of inhibitor, compared to that in the absence of inhibitor. IC50s were derived by non-linear regression analysis.

`CC(C)C[C@@H](Nc1nc(Nc2ccc(-n3ccnc3)cc2)c(C(N)=O)c(=O)[nH]1)C(N)=O` [Example 115, (R)-2-(1-amino-4-methyl-1-oxopentan-2-ylamino)-4-(4-(1H-imidazol-1-yl)phenylamino)-6-oxo-1,6-dihydropyrimidine-5-carboxamide] and `COc1ccc(Nc2nc(N[C@H](CC(C)C)C(N)=O)[nH]c(=O)c2C(N)=O)cc1` [Example 89, (R)-2-(1-amino-4-methyl-1-oxopentan-2-ylamino)-4-(4-methoxyphenylamino)-6-oxo-1,6-dihydropyrimidine-5-carboxamide] fall in the same range of IC50: 1 to 10 nM for the first, 1 to 10 nM for the second.

`COCCOc1cccc(Nc2nc(N[C@H](CC(C)C)C(N)=O)[nH]c(=O)c2C(N)=O)c1` [Example 98, (R)-2-(1-amino-4-methyl-1-oxopentan-2-ylamino)-4-(3-(2-methoxyethoxy)phenylamino)-6-oxo-1,6-dihydropyrimidine-5-carboxamide] and `CC[C@@H](Nc1nc(Nc2cccc(OC)c2)c(C(N)=O)c(=O)[nH]1)C(N)=O` [Example 39, (R)-2-(1-amino-1-oxobutan-2-ylamino)-4-(3-(methoxy)phenylamino)-6-oxo-1,6-dihydropyrimidine-5-carboxamide] fall in the same range of IC50: 1 to 10 nM for the first, 1 to 10 nM for the second.

First: CCNc1nc(Nc2cccc(C)c2)c(C(N)=O)c(OCCO)n1 [Example 75, 4-(m-toluidino)-2-(ethylamino)-6-(2-hydroxyethoxy)pyrimidine-5-carboxamide]
Second: CC[C@@H](Nc1nc(Nc2cccc(C)c2)c(C(N)=O)c(=O)[nH]1)C(N)=O [Example 11, (R)-2-(1-amino-1-oxobutan-2-ylamino)-6-oxo-4-(m-tolylamino)-1,6-dihydropyrimidine-5-carboxamide]
The IC50 of the first is higher: > 1000 nM for the first, 1 to 10 nM for the second. The second is the more potent here.

`CC(C)C[C@@H](Nc1nc(Nc2cccc(-c3cccnc3)c2)c(C(N)=O)c(=O)[nH]1)C(N)=O` [Example 97, (R)-2-(1-amino-4-methyl-1-oxopentan-2-ylamino)-6-oxo-4-(3-(pyridin-3-yl)phenylamino)-1,6-dihydropyrimidine-5-carboxamide] and `CC(C)C[C@@H](Nc1nc(Nc2cccc(-c3ncccc3F)c2)c(C(N)=O)c(=O)[nH]1)C(N)=O` [Example 80, (R)-2-(1-amino-4-methyl-1-oxopentan-2-ylamino)-6-oxo-4-(3-(3-fluoropyridin-2-yl)phenylamino)-1,6-dihydropyrimidine-5-carboxamide] fall in the same range of IC50: 1 to 10 nM for the first, 1 to 10 nM for the second.

First: COc1ccc(Nc2nc(N[C@H](CC(C)C)C(N)=O)[nH]c(=O)c2C(N)=O)cn1 [Example 110]
Second: COc1ccc(Nc2nc(N[C@H](CC(C)C)C(N)=O)[nH]c(=O)c2C(N)=O)cc1OC [Example 83, (R)-2-(1-amino-4-methyl-1-oxopentan-2-ylamino)-4-(3,4-dimethoxyphenylamino)-6-oxo-1,6-dihydropyrimidine-5-carboxamide]
The IC50 of the first is higher: 1 to 10 nM for the first, < 1 nM for the second. The second is the more potent here.

First: COc1nc(Nc2ccc(N3CCOCC3)cc2)nc(NC2CC2)c1C(N)=O [Example 73, 4-(cyclopropylamino)-6-methoxy-2-(4-morpholinophenylamino)pyrimidine-5-carboxamide]
Second: COc1nc(NC2CCCCC2N)nc(Nc2cc(C)cc(C)c2)c1C(N)=O (stereo not drawn) [Example 65, 2-(2-aminocyclohexylamino)-4-(3,5-dimethylphenylamino)-6-methoxypyrimidine-5-carboxamide]
The IC50 of the first is higher: > 1000 nM for the first, 10 to 100 nM for the second.

First: CC[C@@H](Nc1nc(Nc2cccc(-c3ccccn3)c2)c(C(N)=O)c(=O)[nH]1)C(N)=O [Example 41, (R)-2-(1-amino-1-oxobutan-2-ylamino)-6-oxo-4-(3-(pyridin-2-yl)phenylamino)-1,6-dihydropyrimidine-5-carboxamide]
Second: CC[C@@H](Nc1nc(Nc2cnc3ccccc3c2)c(C(N)=O)c(=O)[nH]1)C(N)=O [Example 109, (R)-2-(1-amino-1-oxobutan-2-ylamino)-6-oxo-4-(quinolin-3-ylamino)-1,6-dihydropyrimidine-5-carboxamide]
The IC50 of the first is higher: 1 to 10 nM for the first, < 1 nM for the second.

`COc1nc(N[C@@H](C(N)=O)C(C)C)nc(Nc2ccc3ncccc3c2)c1C(N)=O` [Example 15, (R)-2-(1-amino-3-methyl-1-oxobutan-2-ylamino)-4-methoxy-6-(quinolin-6-ylamino)pyrimidine-5-carboxamide] and `CC[C@@H](Nc1nc(Nc2ccc3c(ccc[n+]3[O-])c2)c(C(N)=O)c(OC)n1)C(N)=O` [Example 17, (R)-6-(2-(1-amino-1-oxobutan-2-ylamino)-5-carbamoyl-6-methoxypyrimidin-4-ylamino)quinoline 1-oxide] fall in the same range of IC50: 10 to 100 nM for the first, 10 to 100 nM for the second.

Going from `Cc1cc(C)cc(Nc2nc(N[C@H](CC(C)C)C(N)=O)[nH]c(=O)c2C(N)=O)c1` [Example 55, (R)-2-(1-amino-4-methyl-1-oxopentan-2-ylamino)-4-(3,5-dimethylphenylamino)-6-oxo-1,6-dihydropyrimidine-5-carboxamide] to `CC(C)C[C@@H](Nc1nc(Nc2ccc3ncsc3c2)c(C(N)=O)c(=O)[nH]1)C(N)=O` [Example 29], the IC50 falls from > 1000 nM to < 1 nM.

First: Cc1cccc(Nc2nc(Nc3ccc(S(N)(=O)=O)cc3)nc(O)c2C(N)=O)c1 [Example 63, 4-(4-(3-methylphenylamino)-5-carboxamide-6-oxo-1,6-dihydropyrimidin-2-ylamino)benzenesulfonamide]
Second: CC(=O)N1CCN(c2ccc(Nc3nc(Nc4cc(C)cc(C)c4)c(C(N)=O)c(=O)[nH]3)cc2)CC1 [Example 59, 2-(4-(4-acetylpiperazin-1-yl)phenylamino)-4-(3,5-dimethylphenylamino)-6-oxo-1,6-dihydropyrimidine-5-carboxamide]
The IC50 of the first is lower: 100 to 1000 nM for the first, > 1000 nM for the second. The first is the more potent here.

First: CC(C)[C@@H](Nc1nc(Nc2ccc3ncsc3c2)c(C(N)=O)c(=O)[nH]1)C(N)=O [Example 30]
Second: CC(C)[C@@H](Nc1nc(Nc2cccc(-n3cccn3)c2)c(C(N)=O)c(=O)[nH]1)C(N)=O [Example 33]
The IC50 of the first is lower: < 1 nM for the first, 1 to 10 nM for the second. The first is the more potent here.

`CC(C)[C@H](CN)Nc1nc(Nc2cccc(-n3nccn3)c2)c(C(N)=O)c(=O)[nH]1` [Example 22, (R)-4-(3-(2H-1,2,3-triazol-2-yl)phenylamino)-2-(1-amino-3-methylbutan-2-ylamino)-6-oxo-1,6-dihydropyrimidine-5-carboxamide] and `CC(C)[C@@H](Nc1nc(Nc2ccc(-n3cccn3)cc2)c(C(N)=O)c(=O)[nH]1)C(N)=O` [Example 19] fall in the same range of IC50: 1 to 10 nM for the first, 1 to 10 nM for the second.

First: CC(=O)N1CCN(c2ccc(Nc3nc(Nc4ccc(N5CCN(C(C)=O)CC5)cc4)c(C(N)=O)c(=O)[nH]3)cc2)CC1 [Example 46, 2,4-bis(4-(4-acetylpiperazin-1-yl)phenylamino)-6-oxo-1,6-dihydropyrimidine-5-carboxamide]
Second: CC[C@@H](Nc1nc(Nc2ccc(-n3cccn3)cc2)c(C(N)=O)c(=O)[nH]1)C(N)=O [Example 24]
The IC50 of the first is higher: > 1000 nM for the first, 1 to 10 nM for the second. The second is the more potent here.

`CC[C@@H](Nc1nc(Nc2cccc(OC(F)(F)F)c2)c(C(N)=O)c(=O)[nH]1)C(N)=O` [Example 102, (R)-2-(1-amino-1-oxobutan-2-ylamino)-4-(3-(trifluoromethoxy)phenylamino)-6-oxo-1,6-dihydropyrimidine-5-carboxamide] and `CC[C@@H](Nc1nc(Nc2ccc(OC)cc2)c(C(N)=O)c(=O)[nH]1)C(N)=O` [Example 90, (R)-2-(1-amino-1-oxobutan-2-ylamino)-4-(4-methoxyphenylamino)-6-oxo-1,6-dihydropyrimidine-5-carboxamide] fall in the same range of IC50: 1 to 10 nM for the first, 1 to 10 nM for the second.

First: CC(C)C[C@@H](Nc1nc(Nc2ccc3c(c2)OCO3)c(C(N)=O)c(=O)[nH]1)C(N)=O [Example 79, (R)-2-(1-amino-4-methyl-1-oxopentan-2-ylamino)-4-(benzo[d][1,3]-dioxol-5-ylamino)-6-oxo-1,6-dihydropyrimidine-5-carboxamide]
Second: C[C@H](N)CNc1nc(Nc2ccc3ncccc3c2)c(C(N)=O)c(=O)[nH]1 [Example 51, (S)-2-(2-aminopropylamino)-6-oxo-4-(quinolin-6-ylamino)-1,6-dihydropyrimidine-5-carboxamide]
The IC50 of the first is lower: < 1 nM for the first, 1 to 10 nM for the second. The first is the more potent here.

Reference: patent publication US20130317029A1 (PORTOLA PHARMACEUTICALS, INC., priority 2010, published 2013)
